According to the NIST ThermoML archive (doi:10.1021/je900437b):

Test: xn = mol fraction of the nth substance listed
Conditions: 101 kPa, Liquid; for speed of sound: Sing-around technique in a fixed-path interferometer; for mass density: Vibrating tube method

CC(C)(N)CO [2-amino-2-methylpropan-1-ol] + NCCO
Conditions | mass density [kg/m3] | speed of sound [m/s]
293.15 K, x2 = 0 | 936.751 | 1501.4
293.15 K, x2 = 0.141 | 944.932 | 1525.9
293.15 K, x2 = 0.2691 | 953.001 | 1550.2
293.15 K, x2 = 0.3862 | 961.121 | 1574
293.15 K, x2 = 0.4939 | 969.165 | 1597.6
293.15 K, x2 = 0.5933 | 977.051 | 1621.2
293.15 K, x2 = 0.6869 | 984.969 | 1645.1
293.15 K, x2 = 0.7724 | 992.742 | 1668.2
293.15 K, x2 = 0.8532 | 1000.62 | 1691
293.15 K, x2 = 0.9268 | 1008.22 | 1712.6
298.15 K, x2 = 0 | 932.596 | 1483.4
298.15 K, x2 = 0.141 | 940.731 | 1508.3
298.15 K, x2 = 0.2691 | 948.799 | 1533
298.15 K, x2 = 0.3862 | 956.918 | 1557.1
298.15 K, x2 = 0.4939 | 964.959 | 1580.9
298.15 K, x2 = 0.5933 | 972.875 | 1604.7
298.15 K, x2 = 0.6869 | 980.811 | 1628.8
298.15 K, x2 = 0.7724 | 988.58 | 1652
298.15 K, x2 = 0.8532 | 996.465 | 1674.8
298.15 K, x2 = 0.9268 | 1004.08 | 1696.5
303.15 K, x2 = 0 | 928.395 | 1461.2
303.15 K, x2 = 0.141 | 936.493 | 1486.9
303.15 K, x2 = 0.2691 | 944.603 | 1512.3
303.15 K, x2 = 0.3862 | 952.718 | 1537.1
303.15 K, x2 = 0.4939 | 960.768 | 1561.6
303.15 K, x2 = 0.5933 | 968.682 | 1585.9
303.15 K, x2 = 0.6869 | 976.624 | 1610.5
303.15 K, x2 = 0.7724 | 984.413 | 1634.3
303.15 K, x2 = 0.8532 | 992.305 | 1657.7
303.15 K, x2 = 0.9268 | 999.98 | 1679.9
308.15 K, x2 = 0 | 924.174 | 1442.4
308.15 K, x2 = 0.141 | 932.236 | 1468.5
308.15 K, x2 = 0.2691 | 940.355 | 1494.4
308.15 K, x2 = 0.3862 | 948.482 | 1519.5
308.15 K, x2 = 0.4939 | 956.545 | 1544.3
308.15 K, x2 = 0.5933 | 964.465 | 1569
308.15 K, x2 = 0.6869 | 972.442 | 1593.8
308.15 K, x2 = 0.7724 | 980.259 | 1617.7
308.15 K, x2 = 0.8532 | 988.206 | 1641.2
308.15 K, x2 = 0.9268 | 995.885 | 1663.6
313.15 K, x2 = 0 | 919.945 | 1423.8
313.15 K, x2 = 0.141 | 927.969 | 1450.4
313.15 K, x2 = 0.2691 | 936.091 | 1476.5
313.15 K, x2 = 0.3862 | 944.248 | 1501.9
313.15 K, x2 = 0.4939 | 952.319 | 1527
313.15 K, x2 = 0.5933 | 960.252 | 1551.9
313.15 K, x2 = 0.6869 | 968.25 | 1576.9
313.15 K, x2 = 0.7724 | 976.093 | 1601
313.15 K, x2 = 0.8532 | 984.066 | 1624.7
313.15 K, x2 = 0.9268 | 991.791 | 1647.3
318.15 K, x2 = 0 | 915.702 | 1405.3
318.15 K, x2 = 0.141 | 923.687 | 1432.2
318.15 K, x2 = 0.2691 | 931.816 | 1458.6
318.15 K, x2 = 0.3862 | 940.009 | 1484.3
318.15 K, x2 = 0.4939 | 948.077 | 1509.7
318.15 K, x2 = 0.5933 | 956.017 | 1534.8
318.15 K, x2 = 0.6869 | 964.037 | 1559.9
318.15 K, x2 = 0.7724 | 971.917 | 1584.1
318.15 K, x2 = 0.8532 | 979.896 | 1608
318.15 K, x2 = 0.9268 | 987.66 | 1630.8
323.15 K, x2 = 0 | 911.431 | 1386.9
323.15 K, x2 = 0.141 | 919.381 | 1414.2
323.15 K, x2 = 0.2691 | 927.518 | 1440.8
323.15 K, x2 = 0.3862 | 935.735 | 1466.7
323.15 K, x2 = 0.4939 | 943.814 | 1492.3
323.15 K, x2 = 0.5933 | 951.753 | 1517.7
323.15 K, x2 = 0.6869 | 959.804 | 1542.9
323.15 K, x2 = 0.7724 | 967.721 | 1567.2
323.15 K, x2 = 0.8532 | 975.738 | 1591.3
323.15 K, x2 = 0.9268 | 983.527 | 1614.4

CN(CCO)CCO [N-methyldiethanolamine] + NCCO
Conditions | mass density [kg/m3] | speed of sound [m/s]
293.15 K, x2 = 0 | 1042.2 | 1585.5
293.15 K, x2 = 0.1789 | 1040.32 | 1603.7
293.15 K, x2 = 0.3286 | 1038.49 | 1622.3
293.15 K, x2 = 0.456 | 1036.46 | 1640
293.15 K, x2 = 0.5691 | 1034.2 | 1656.3
293.15 K, x2 = 0.6614 | 1031.81 | 1671.6
293.15 K, x2 = 0.7451 | 1029.17 | 1686
293.15 K, x2 = 0.8197 | 1026.39 | 1698.7
293.15 K, x2 = 0.854 | 1025 | 1705.5
293.15 K, x2 = 0.8865 | 1023.48 | 1712
293.15 K, x2 = 0.9461 | 1020.22 | 1723.3
293.15 K, x2 = 0.9738 | 1018.27 | 1729.4
298.15 K, x2 = 0 | 1038.29 | 1570.1
298.15 K, x2 = 0.1789 | 1036.35 | 1588.5
298.15 K, x2 = 0.3286 | 1034.46 | 1607.1
298.15 K, x2 = 0.456 | 1032.46 | 1624.7
298.15 K, x2 = 0.5691 | 1030.16 | 1641
298.15 K, x2 = 0.6614 | 1027.72 | 1656.2
298.15 K, x2 = 0.7451 | 1025.1 | 1670.5
298.15 K, x2 = 0.8197 | 1022.32 | 1683.1
298.15 K, x2 = 0.854 | 1020.84 | 1689.8
298.15 K, x2 = 0.8865 | 1019.33 | 1696.3
298.15 K, x2 = 0.9461 | 1016.09 | 1707.3
298.15 K, x2 = 0.9738 | 1014.2 | 1713.3
303.15 K, x2 = 0 | 1034.36 | 1554.8
303.15 K, x2 = 0.1789 | 1032.34 | 1573.4
303.15 K, x2 = 0.3286 | 1030.41 | 1591.9
303.15 K, x2 = 0.456 | 1028.38 | 1609.4
303.15 K, x2 = 0.5691 | 1026.07 | 1625.7
303.15 K, x2 = 0.6614 | 1023.61 | 1640.8
303.15 K, x2 = 0.7451 | 1020.96 | 1655
303.15 K, x2 = 0.8197 | 1018.17 | 1667.5
303.15 K, x2 = 0.854 | 1016.66 | 1674.1
303.15 K, x2 = 0.8865 | 1015.15 | 1680.6
303.15 K, x2 = 0.9461 | 1011.9 | 1691.5
303.15 K, x2 = 0.9738 | 1009.95 | 1697.5
308.15 K, x2 = 0 | 1030.43 | 1539.5
308.15 K, x2 = 0.1789 | 1028.36 | 1558.2
308.15 K, x2 = 0.3286 | 1026.41 | 1576.6
308.15 K, x2 = 0.456 | 1024.37 | 1594
308.15 K, x2 = 0.5691 | 1022.01 | 1610.2
308.15 K, x2 = 0.6614 | 1019.55 | 1625.2
308.15 K, x2 = 0.7451 | 1016.86 | 1639.4
308.15 K, x2 = 0.8197 | 1014.03 | 1651.8
308.15 K, x2 = 0.854 | 1012.55 | 1658.3
308.15 K, x2 = 0.8865 | 1011.03 | 1664.7
308.15 K, x2 = 0.9461 | 1007.83 | 1675.5
308.15 K, x2 = 0.9738 | 1005.91 | 1681.3
313.15 K, x2 = 0 | 1026.48 | 1524.2
313.15 K, x2 = 0.1789 | 1024.36 | 1543
313.15 K, x2 = 0.3286 | 1022.38 | 1561.3
313.15 K, x2 = 0.456 | 1020.33 | 1578.7
313.15 K, x2 = 0.5691 | 1017.96 | 1594.7
313.15 K, x2 = 0.6614 | 1015.47 | 1609.7
313.15 K, x2 = 0.7451 | 1012.76 | 1623.8
313.15 K, x2 = 0.8197 | 1009.92 | 1636
313.15 K, x2 = 0.854 | 1008.44 | 1642.5
313.15 K, x2 = 0.8865 | 1006.91 | 1648.8
313.15 K, x2 = 0.9461 | 1003.74 | 1659.5
313.15 K, x2 = 0.9738 | 1001.87 | 1665.2
318.15 K, x2 = 0 | 1022.53 | 1508.8
318.15 K, x2 = 0.1789 | 1020.38 | 1527.7
318.15 K, x2 = 0.3286 | 1018.35 | 1546
318.15 K, x2 = 0.456 | 1016.27 | 1563.2
318.15 K, x2 = 0.5691 | 1013.89 | 1579.2
318.15 K, x2 = 0.6614 | 1011.39 | 1594.1
318.15 K, x2 = 0.7451 | 1008.66 | 1608
318.15 K, x2 = 0.8197 | 1005.81 | 1620.2
318.15 K, x2 = 0.854 | 1004.31 | 1626.6
318.15 K, x2 = 0.8865 | 1002.79 | 1632.8
318.15 K, x2 = 0.9461 | 999.607 | 1643.3
318.15 K, x2 = 0.9738 | 997.788 | 1649
323.15 K, x2 = 0 | 1018.58 | 1493.4
323.15 K, x2 = 0.1789 | 1016.38 | 1512.4
323.15 K, x2 = 0.3286 | 1014.32 | 1530.6
323.15 K, x2 = 0.456 | 1012.2 | 1547.7
323.15 K, x2 = 0.5691 | 1009.81 | 1563.6
323.15 K, x2 = 0.6614 | 1007.31 | 1578.4
323.15 K, x2 = 0.7451 | 1004.57 | 1592.2
323.15 K, x2 = 0.8197 | 1001.7 | 1604.3
323.15 K, x2 = 0.854 | 1000.21 | 1610.7
323.15 K, x2 = 0.8865 | 998.693 | 1616.8
323.15 K, x2 = 0.9461 | 995.464 | 1627.2
323.15 K, x2 = 0.9738 | 993.693 | 1632.8
